Measurements published in patent US12383699B2, “Catheter attachment made of plastic that contains molecularly dispersed polychlorinated phenoxyphenol (PCPP)” (priority 2017, dated 2025).

Tested on: fibroblasts
Assay: fibroblast cytotoxicity test (MTT)
Format: cell-based
Excerpt: In FIG. 3, the following meanings apply: Mic: miconazole, Tri: trimetoprim, Rif: rifampicin, Irg: Irgasan, Gen: gentamicin, Fus: fusidic acid, Oct: octenidine, Ben: benzylpenicillin, Chl: chlorohexidine, Cli: clindamycine.

With Oc1cc(Cl)ccc1Oc1ccc(Cl)cc1Cl [Irgasan, 5-chloro-2-(2,4-dichlorophenoxy)phenol] the “maximum concentration up to which fibroblasts are hardly inhibited and the substance is non-toxic” value (FIG. 3, MTT) was ≤ 10 µg/mL and the “adverse affection in fibroblast-cytotoxicity test” value (Irgasan release (cm^2) of 2-4 mg/I, release rates for inhibition zones of about 20 mm) was “only a minimum adverse affection”.
